Measured values: patent US20100113517A1, “METHOD FOR THE TREATMENT OF FABRY DISEASE USING PHARMACOLOGICAL CHAPERONES” (AMICUS THERAPEUTICS, INC., priority 2007, published 2010)
Structures can show the parent of a compound that is named as a salt.

Legend:
[1] = including peripheral neuropathy and severe gastrointestinal effects; even at 150 mg/day; cited from earlier work
[2] = biological target: T1, human mutant α-Gal A (R301Q) (Homo sapiens, UniProt P06280, R301Q); assay: α-Gal A (GLA) enzyme activity in tissue lysates of R301Q Tg/KO mice; format: in vivo; settings: 4 weeks
T1 construct: Tissue lysates were prepared by homogenizing about 50 mg tissue in assay buffer; from tissue; host or cells: heart, kidney, skin, liver and spleen of R301Q Tg/KO mice (human transgene, mouse α-Gal A knocked out)
T1 sequence (P06280 32-429 R301Q): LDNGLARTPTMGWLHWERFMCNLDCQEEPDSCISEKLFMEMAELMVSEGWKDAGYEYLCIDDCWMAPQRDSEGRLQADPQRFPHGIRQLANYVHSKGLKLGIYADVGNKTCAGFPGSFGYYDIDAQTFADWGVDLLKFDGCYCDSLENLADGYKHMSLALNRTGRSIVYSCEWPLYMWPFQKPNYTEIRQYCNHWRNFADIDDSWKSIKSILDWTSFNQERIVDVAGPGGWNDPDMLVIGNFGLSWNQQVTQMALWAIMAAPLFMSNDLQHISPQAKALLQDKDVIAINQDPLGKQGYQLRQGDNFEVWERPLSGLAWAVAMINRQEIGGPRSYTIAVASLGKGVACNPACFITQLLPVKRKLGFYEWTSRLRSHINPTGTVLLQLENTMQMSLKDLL
Description: Transgenic mice that exclusively express human mutant α-Gal A (R301Q) in an α-Gal A knock-out background (TgM/KO mice) were established and evaluated. This Example serves as a biochemical model to study and evaluate pharmacological chaperone therapy for Fabry disease, which is specific for those missense mutations that cause misfolding of α-Gal A.
Mice. Fabry R301Q Tg/KO mice were a gift from Dr. Robert Desnick. Male C57BL/6 mice were purchased from Taconic Farms, Germantown, N.Y. and housed in wire cages at 4 mice per cage. All studies were conducted at 8 weeks of age and conducted under strict adherence to IACUC guidelines.
Drug Administration. […] After dosing, indicated tissues were harvested and treated as described below.
Enzyme activity assay. After dosing, indicated tissues were harvested and frozen. Tissue lysates were prepared by homogenizing about 50 mg tissue in assay buffer. 2.5 μL lysate was combined with 17.5 μL of the assay buffer and 50 μL of the respective substrate solution (same as detailed in sections above). Reaction mixtures were then incubated at 37° C. for 1 hr. Afterward, 70 μL stop solution (0.4 M glycine, pH 10.8) was added, and fluorescence was read on a Victor plate reader at 355 nm excitation and 460 nm emission. Enzyme activity in the lysates was background subtracted, and normalized for protein concentration using the MicroBCA Protein Assay Kit (Pierce). A 4-MU standard curve was run (same as detailed in sections above) for conversion of fluorescence data to absolute enzyme activity expressed as nmoles/mg protein/hr or further normalized to % of untreated activity.

GL-3 = GL-3 analysis from mouse tissues (LC-MS/MS); format: in vivo; settings: male R301Q Tg/KO mice, 30 mg/kg daily per os, 4 weeks
Procedure: Drug Administration. […] For the GL-3 assay, two groups of 6-7 male […] After dosing, indicated tissues were harvested and treated as described below. GL-3 analysis from mouse tissues. Tissue samples were washed free of blood, weighed and homogenized with a solvent system in a FastPrep® system. Homogenate was then extracted using Solid Phase Extraction on a C18 cartridge. The eluent was evaporated and reconstituted prior to injection onto a LC/MS system. Nine GL3 isoforms were measured using positive ESI-MS/MS. LC separation was achieved on a Zorbax C18 column.

[3] = male R301Q Tg/KO mice, 30 mg/kg daily oral gavage, vs. untreated

Row | Structure (SMILES) | adverse events [1] | increase in mutant GLA activity, heart [2, 3] | increase in mutant GLA activity, kidney [2, 3] | increase in mutant GLA activity, liver [2, 3] | increase in mutant GLA activity, skin [2, 3] | increase in mutant GLA activity, spleen [2, 3] | increase in mutant GLA activity, all treated tissues ([2]; male and female R301Q Tg/KO mice, 30 mg/kg/day in drinking water) | GL-3 levels, kidney tissue (GL-3) | reduction of GL-3 levels, heart tissue (GL-3) | reduction of GL-3 levels, skin tissue (GL-3)
1 | CCCCN1C[C@H](O)[C@@H](O)[C@H](O)[C@H]1CO [NB-DNJ] | numerous adverse events | – | – | – | – | – | – | – | – | –
2 | OCC1NCC(O)C(O)C1O (stereo not shown) [DGJ HCl, migalastat hydrochloride] | – | 11±0.1 -fold | 5.5±0.3 -fold | 3±0.02 -fold | 6.2±0.7 -fold | 5±0.1 -fold | comparable increases | trend towards reduction, but did not reach statistical significance | 1.6 -fold | 2.2 -fold
